Results published in patent publication US20090275565A1, “Substituted aralkyl derivatives” (CADILA HEALTHCARE LIMITED, priority 2002, published 2009).
Counter-ions that a name gives are not always drawn. One block for each compound: values may come before it.

Assays:
[1] = system: hypercholesterolemic rat models; test: Cholesterol lowering activity in hypercholesterolemic rat models; format: in vivo; conditions: hypercholesterolemic male Sprague Dawley rats, oral, 3 mg/kg/day, serum
Procedure: • ii) Cholesterol lowering activity in hypercholesterolemic rat models
Male Sprague Dawley rats stock bred in Zydus animal house were maintained under 12 hour light and dark cycle at 25±1° C. Rats of 100-150 g body weight range were used for the experiment. Animals were made hypercholesterolemic by feeding 1% cholesterol and 0.5% sodium cholate mixed with standard laboratory chow (NIN, Hyderabad, India) and water ad libitum for 5 days. The animals were maintained on the same diet throughout the experiment [Petit D., Bonnefis M. T., Rey C and Infante R., Effects of ciprofibrate on liver lipids and lipoprotein synthesis in normal and hyperlipidemic rats, Atherosclerosis, 74, 215-225 (1988)].
The test compounds were administered orally at a dose 0.03 to 50 mg/kg/day for 4 days, after suspending it in 0.25% CMC or dissolving it in water when compound is water-soluble. Control group was treated with vehicle alone (0.25% of Carboxymethylcellulose; dose 10 ml/kg).
The blood samples were collected in fed state on 0th and 1 hour after drug administration on 6th day of the treatment. The blood was collected from the retro-orbital sinus through non-heparinised capillary and the serum samples were analyzed for triglyceride and total cholesterol using commercial kits (Zydus-Cadila, Pathline, Ahmedabad, India). LDL and HDL by commercial kits (point Scientific, USA). LDL and VLDL cholesterol were calculated from the data obtained for total cholesterol, HDL and triglyceride.
The reduction in VLDL cholesterol is calculated according to the formula.
VLDL cholesterol in mg/dl=Total cholesterol−HDL cholesterol−LDL cholesterol

C57BL/KsJ-db/db mice = test: Serum glucose lowering activity in db/db mice models; format: in vivo; conditions: male C57BL/KsJ-db/db mice, oral gavage, 3 mg/kg/day, 6 days, one hour after dosing on 6th day
Procedure: • iii) Serum glucose lowering activity in db/db mice models
Homozygous animal C57BL/KsJ-db/db mice are obese, hyperglycemic, hyperinsulinemic and insulin resistant (J. Clin. Invest., 85, 962-967, 1990), whereas heterozygous are lean and normoglycemic. The homozygous animals very closely mimic the human type II diabetes when blood sugar levels are not sufficiently controlled. Since this type of model resembles human type II diabetes mellitus, the compounds of the invention were tested for their antidiabetic activity in this model.
Male C57 BL/KsJ-db/db mice of 8 to 14 weeks age, having body weight range of 40 to 60 grams, procured from the Jackson Laboratory, USA, were used in the experiment.
Test compounds were suspended on 0.25% carboxymethyl cellulose or dissolved in water when the compound is water soluble and administered to test group containing 6 animals at a dose of 0.001 mg to 50 mg/kg through oral gavage daily for 6 days. The control group received vehicle (dose 10 ml/kg). On the 6th day, one hour after the drug dosing, blood was collected from retro-orbital sinus and the serum was analyzed for glucose and triglycerides were measured using commercial kits (Zydus-Cadila, Pathline, Ahmedabad, India). The serum glucose and triglyceride lowering activities of the test compound was calculated according of the formula: […]

Swiss albino mice = test: Serum triglyceride and total cholesterol lowering activity in Swiss albino mice; format: in vivo; conditions: male Swiss albino mice, oral, 3 mg/kg/day, 6 days, fed state 1 hour after dosing on 6th day
Procedure: Male Swiss albino mice (SAM) were bred in Zydus animal house. All these animals were maintained under 12 hour light and dark cycle at 25±1° C. Animals were given standard laboratory chow (NIN, Hyderabad, India) and water ad libitum. SAM of 20-30 g body weight range were used.
The test compounds were administered orally to Swiss albino mice at 0.001 to 50 mg/kg/day dose for 6 days. The compound was administered after suspending it in 0.25% CMC or dissolving it in water, when compound is water-soluble. Control mice were treated with vehicle (0.25% of Carboxymethylcellulose; dose 10 ml/kg).
The blood samples were collected on 0th day and in fed state 1 hour after drug administration on 6th day of the treatment. The blood was collected in non heparinised capillary and the serum was analyzed for triglyceride and total cholesterol (Wieland, O. Methods of Enzymatic analysis. Bergermeyer, H., O., Ed., 1963. 211-214; Trinder, P. Ann. Clin. Biochem. 1969. 6: 24-27). Measurement of serum triglyceride and total cholesterol was done using commercial kits (Zydus-Cadila, Pathline, Ahmedabad, India).
Percentage reduction in triglycerides/total cholesterol were calculated according to the formula: […]

melting point: 135 °C
SMILES: CCO[C@H](CN)Cc1ccc(OCc2nc(-c3ccccc3)oc2C)cc1.O=C(O)C(=O)O

melting point: 175 °C
SMILES: CCO[C@H](CN)Cc1ccc(OCCc2nc(-c3ccccc3)oc2C)cc1 (as salt: bisulphate) [Compound 167, Bisulphate Salt of 2S-Ethoxy-3-{4-[2-(5-methyl-2-phenyl-oxazol-4-yl)-ethoxy]-phenyl}-propyl amine]

SMILES: CCO[C@@H](Cc1ccc(OCc2nc(-c3cccs3)oc2C)cc1)C(=O)O [Compound 27, (2S)-Ethoxy-3-[4-(5-methyl-2-thiophen-2-yl-oxazol-4-ylmethoxy)-phenyl]-propanoic acid]
Total cholesterol reduction (%) [1]: 44%

SMILES: CCO[C@H](CO)Cc1ccc(OCCc2nc(-c3ccccc3)oc2C)cc1 [Compound 64, (2S)-Ethoxy-3-{4-[2-(5-methyl-2-phenyl-oxazol-4-yl)-ethoxy]-phenyl}-propan-1-ol]
Plasma TG reduction (%) (C57BL/KsJ-db/db mice): 74% | Serum Glucose reduction (%) (C57BL/KsJ-db/db mice): 56%

SMILES: CCOC[C@H](Cc1ccc(OCCc2nc(-c3ccccc3)oc2C)cc1)OCC [Compound 84, 1-Ethoxy-(2S)-ethoxy-3-[4-{2-(5-methyl-2-phenyl-oxazol-4-yl)-ethoxy}-phenyl]-propane]
Plasma TG reduction (%) (C57BL/KsJ-db/db mice): 47% | Serum Glucose reduction (%) (C57BL/KsJ-db/db mice): 47%

SMILES: CCO[C@H](COC(=O)CBr)Cc1ccc(OCCc2nc(-c3ccccc3)oc2C)cc1 [Compound 90, (2S)-Ethoxy-3-{4-[2-(5-methyl-2-phenyl-oxazol-4-yl)-ethoxy]-phenyl}-propyl bromo-acetate]
Total cholesterol reduction (%) [1]: 56%

SMILES: CCO[C@H](CN)Cc1ccc(OCCc2nc(-c3ccccc3)oc2C)cc1 [Compound 134, (2S)-Ethoxy-3-{4-[2-(5-methyl-2-phenyl-oxazol-4-yl)-ethoxy]-phenyl}-propylamine]
% Triglyceride lowering (Swiss albino mice): 54%

SMILES: CCO[C@H](CN)Cc1ccc(OCc2nc(-c3ccccc3)oc2C)cc1 [Compound 141, (2S)-Ethoxy-3-{4-[5-methyl-2-phenyl-oxazol-4-ylmethoxy]-phenyl}-propylamine]
Total cholesterol reduction (%) [1]: 61%
